Results reported in patent US7442710B2, “Substituted phenyl methanones” (Hoffman-La Roche Inc., priority 2005, dated 2008).
pIC50: −log10 of the molar value.

Biological target: T1, mGlyT-1b (Mus musculus, UniProt P28571)
T1 construct: host or cells: Flp-in-CHO cells, stably transfected
T1 sequence (P28571 1-651 isoform P28571-2): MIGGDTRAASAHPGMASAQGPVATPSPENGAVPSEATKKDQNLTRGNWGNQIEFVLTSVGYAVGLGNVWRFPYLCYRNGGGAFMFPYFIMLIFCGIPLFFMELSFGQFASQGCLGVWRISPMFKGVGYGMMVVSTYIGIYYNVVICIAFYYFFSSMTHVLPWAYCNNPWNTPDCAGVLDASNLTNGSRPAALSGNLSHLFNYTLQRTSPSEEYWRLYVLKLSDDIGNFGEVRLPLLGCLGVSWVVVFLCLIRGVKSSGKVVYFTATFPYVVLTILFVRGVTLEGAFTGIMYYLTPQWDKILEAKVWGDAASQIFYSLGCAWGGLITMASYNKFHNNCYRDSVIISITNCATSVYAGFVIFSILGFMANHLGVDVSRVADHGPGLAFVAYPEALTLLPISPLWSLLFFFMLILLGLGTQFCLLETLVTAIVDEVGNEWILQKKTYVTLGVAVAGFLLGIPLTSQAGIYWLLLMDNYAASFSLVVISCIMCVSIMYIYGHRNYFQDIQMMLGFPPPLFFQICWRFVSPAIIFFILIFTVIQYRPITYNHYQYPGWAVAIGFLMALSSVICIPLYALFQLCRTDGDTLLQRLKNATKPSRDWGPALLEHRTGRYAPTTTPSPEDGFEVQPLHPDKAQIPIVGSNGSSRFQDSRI
Assay: Glycine uptake inhibition assay (mGlyT-1b)
Assay type: cell-based
Settings: [3H]-glycine uptake, Flp-in-CHO cells transfected with mGlyT-1b cDNA
Experimental: DMEM complete medium: Nutrient mixture F-12 (Gibco Life-technologies), fetal bovine serum (FBS) 5%, (Gibco life technologies), Penicillin/Streptomycin 1% (Gibco life technologies), Hygromycin 0.6 mg/ml (Gibco life technologies), Glutamine 1 mM Gibco life technologies).
Uptake buffer (UB): 150 mM NaCl, 10 mM Hepes-Tris, pH 7.4, 1 mM CaCl2, 2.5 mM KCl, 2.5 mM MgSO4, 10 mM (+) D-glucose. Flp-in™-CHO (Invitrogen Cat n° R758-07)cells stably transfected with mGlyT1b cDNA.
Glycine uptake inhibition assay (mGlyT-1b)
On day 1 mammalian cells, (Flp-in™-CHO), transfected with mGlyT-1b cDNA, were plated at the density of 40,000 cells/well in complete F-12 medium, without hygromycin in 96-well culture plates. On day 2, the medium was aspirated and the cells were washed twice with uptake buffer (UB). The cells were then incubated for 20 min at 22° C. with either (i) no potential competitor, (ii) 10 mM non-radioactive glycine, (iii) a concentration of a potential inhibitor. A range of concentrations of the potential inhibitor was used to generate data for calculating the concentration of inhibitor resulting in 50% of the effect (e.g. IC50, the concentration of the competitor inhibiting glycine uptake of 50%). A solution was then immediately added containing [^3H]-glycine 60 nM (11-16 Ci/mmol) and 25 μM non-radioactive glycine. The plates were incubated with gentle shaking and the reaction was stopped by aspiration of the mixture and washing (three times) with ice-cold UB. The cells were lysed with scintillation liquid, shaken 3 hours and the radioactivity in the cells was counted using a scintillation counter.

Row | SMILES | pIC50
1 | CC(C)Oc1ccc(S(C)(=O)=O)cc1C(=O)N1CCc2ccc(Cl)cc2C1 [Example 1.25, (7-Chloro-3,4-dihydro-1H-isoquinolin-2-yl)-(2-isopropoxy-5-methanesulfonyl-phenyl)-methanone] | 6.67
2 | CC(C)Oc1ccc(S(C)(=O)=O)cc1C(=O)N1CCc2cc(Cl)ccc2C1 [Example 1.19, (6-Chloro-3,4-dihydro-1H-isoquinolin-2-yl)-(2-isopropoxy-5-methanesulfonyl-phenyl)-methanone] | 6.44
3 | C[C@H](Oc1ccc(S(C)(=O)=O)cc1C(=O)N1CCc2cc(C(F)(F)F)ccc2C1)C(F)(F)F [Example 1.14, [5-Methanesulfonyl-2-((S)-2,2,2-trifluoro-1-methyl-ethoxy)-phenyl]-(6-trifluoromethyl-3,4-dihydro-1H-isoquinolin-2-yl)-methanone] | 6.76
4 | Cc1c2c(c(C)c3c1OCO3)CN(C(=O)c1cc(S(C)(=O)=O)ccc1OC(C)C)CC2 [Example 1.53] | 6.32
5 | CC(C)Oc1ccc(S(C)(=O)=O)cc1C(=O)N1CCc2cccc(Cl)c2C1 [Example 1.30, (8-Chloro-3,4-dihydro-1H-isoquinolin-2-yl)-(2-isopropoxy-5-methanesulfonyl-phenyl)-methanone] | 6.46
6 | CS(=O)(=O)c1ccc(-c2ccccc2)c(C(=O)N2CCc3cc(C(F)(F)F)ccc3C2)c1 [Example 1.15, (4-Methanesulfonyl-biphenyl-2-yl)-(6-trifluoromethyl-3,4-dihydro-1H-isoquinolin-2-yl)-methanone] | 6.77
7 | CS(=O)(=O)c1ccc(N2CCOCC2)c(C(=O)N2CCc3cc(C(F)(F)F)ccc3C2)c1 [Example 1.13, (5-Methanesulfonyl-2-morpholin-4-yl-phenyl)-(6-trifluoromethyl-3,4-dihydro-1H-isoquinolin-2-yl)-methanone] | 6.49
8 | CC(C)Oc1ccc(S(C)(=O)=O)cc1C(=O)N1CCc2cc(C#N)ccc2C1 [Example 1.20, 2-(2-Isopropoxy-5-methanesulfonyl-benzoyl)-1,2,3,4-tetrahydro-isoquinoline-6-carbonitrile] | 6.34
9 | COc1ccc2c(c1)CCN(C(=O)c1cc(S(C)(=O)=O)ccc1OC(C)C)C2 [Example 1.40, (2-Isopropoxy-5-methanesulfonyl-phenyl)-(6-methoxy-3,4-dihydro-1H-isoquinolin-2-yl)-methanone] | 6.32

These reach a higher pIC50. Values come first.

Row | pIC50 | SMILES
10 | 6.79 | CC(C)Oc1ccc(S(C)(=O)=O)cc1C(=O)N1CCc2ccc(Cl)c(Cl)c2C1 [Example 1.26, (7,8-Dichloro-3,4-dihydro-1H-isoquinolin-2-yl)-(2-isopropoxy-5-methanesulfonyl-phenyl)-methanone]
11 | 6.80 | CC(C)Sc1ccc(S(C)(=O)=O)cc1C(=O)N1CCc2cc(Cl)ccc2C1 [Example 1.57, (6-Chloro-3,4-dihydro-1H-isoquinolin-2-yl)-(2-isopropylsulfanyl-5-methanesulfonyl-phenyl)-methanone]
12 | 6.80 | CC(C)Oc1ccc(S(C)(=O)=O)cc1C(=O)N1CCc2c(ccc3c4ccccc4n(C)c23)C1 [Example 1.47, (2-Isopropoxy-5-methanesulfonyl-phenyl)-(11-methyl-1,2,4,11-tetrahydro-pyrido[4,3-a]carbazol-3-yl)-methanone]
13 | 6.80 | C[C@H](Oc1ccc(S(C)(=O)=O)cc1C(=O)N1CCc2cc(Cl)ccc2C1)C(F)(F)F [Example 1.18, (6-Chloro-3,4-dihydro-1H-isoquinolin-2-yl)-[5-methanesulfonyl-2-((S)-2,2,2-trifluoro-1-methyl-ethoxy)-phenyl]-methanone]
14 | 7.09 | CS(=O)(=O)c1ccc(-c2ccccc2)c(C(=O)N2CCc3nc(C(F)(F)F)ccc3C2)c1 [Example 1.8, (4-Methanesulfonyl-biphenyl-2-yl)-(2-trifluoromethyl-7,8-dihydro-5H-[1,6]naphthyridin-6-yl)-methanone]
15 | 7.34 | CC(C)Oc1ccc(S(C)(=O)=O)cc1C(=O)N1CCc2cc(C(F)(F)F)ccc2C1 [Example 1.12, (2-Isopropoxy-5-methanesulfonyl-phenyl)-(6-trifluoromethyl-3,4-dihydro-1H-isoquinolin-2-yl)-methanone]
